Laboratory results published in the supplement of paper PMC11208160.

Test: recombinant UMI read abundance after kanamycin selection (control-corrected) (log10(CPM+1)); higher = more efficient recombination; extreme values may be limits of the assay; sequences stand for … in AGTGCAGAGAAAATCGGCCAGTTTTCTCTGCCTGCAGTCCGCATGCCGTGGGACCCCTTGGGTTCTAACCTGTTGCCTAGATTTATGCAGCGGACTGCCTTTCTCCCAAAGTGATAAACCGG…AGGTTGGTTTCACT; site = the 11-nt donor
Method in brief: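 In a pooled Escherichia coli screen for the IS621 bridge recombinase, donor and donor-binding-loop pairs were each placed with a 12-nt UMI on a plasmid bearing a promoterless kanamycin gene. This library was co-electroporated with a target plasmid encoding a fixed target and T7-inducible recombinase, and cells were plated either on IPTG (0.07 mM) plus kanamycin or without selection, in two replicates each. Recombinant UMIs were PCR-amplified across the donor–target junction and sequenced, and counts were converted to CPM, averaged over replicates, scaled by control-derived factors and reported as log10(CPM+1).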
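Further: IS621 bridge recombinase in Escherichia coli cells against a fixed T5 target plasmid.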

Sequence	recombinant UMI read abundance (log10)
CACATTGCATGGACCGGTTTTCCCGGTAATCCGTATTTGGT (site CACATTGCTAC)	1.69
GTGGATGCATGGACCGGTTTTCCCGGTAATCCGTATTTGGT (site GTGCATGCTAC)	0.00775
GTAAGTACATGGACCGGTTTTCCCGGTAATCCGTATTTGAC (site GTAAGTACTGT)	2.96
CAGTAACCATGGACCGGTTTTCCCGGTAATCCGTATTTGAA (site CAGTAACCTTT)	0.255
TAGTTGGCATGGACCGGTTTTCCCGGTAATCCGTATTTGTG (site TAATTGGCTCA)	0.0238
GGGGCACCATGGACCGGTTTTCCCGGTAATCCGTATTTGCA (site GGGGCATCTTG)	0
TCGGAGACATGGACCGGTTTTCCCGGTAATCCGTATTTGCG (site TCTGAGACTCG)	0.976
AGCTAAGCATGGACCGGTTTTCCCGGTAATCCGTATTTGGG (site AGCTTAGCTCC)	0.117
TTTAGGGCATGGACCGGTTTTCCCGGTAATCCGTATTTGAC (site TTTAGGGCTGT)	1.53
TAGCCTTCATGGACCGGTTTTCCCGGTAATCCGTATTTGCT (site TAGCCTTCTAT)	0
ATGCAAGCATGGACCGGTTTTCCCGGTAATCCGTATTTGAG (site ATCCAAGCTCT)	0.701
GGATAGACATGGACCGGTTTTCCCGGTAATCCGTATTTGCC (site GGATAGACTAG)	0.852
CGTTGCACATGGACCGGTTTTCCCGGTAATCCGTATTTGGG (site CGTTGCACTCC)	0.0529
TGTACACCATGGACCGGTTTTCCCGGTAATCCGTATTTGAC (site TGTACGCCTGT)	0
CGATTATCATGGACCGGTTTTCCCGGTAATCCGTATTTGCA (site CGATTATCTTG)	2.39
TAGTTGGCATGGACCGGTTTTCCCGGTAATCCGTATTTGTG (site TATTTGGCTCA)	0.00327
CAGACGACATGGACCGGTTTTCCCGGTAATCCGTATTTGGG (site CAGGCGACTCC)	0.0123
CCGAAAACATGGACCGGTTTTCCCGGTAATCCGTATTTGCT (site GCGAAAACTAG)	0
TTTGAGGCATGGACCGGTTTTCCCGGTAATCCGTATTTGCT (site TTTGGGGCTAG)	0.458

Sequence	recombinant UMI read abundance (log10)
ACTCATCCATGGACCGGTTTTCCCGGTAATCCGTATTTGAC (site ACACATCCTGT)	0
CCATACACATGGACCGGTTTTCCCGGTAATCCGTATTTGTT (site CCATACACTAA)	0.866
CCAGGTACATGGACCGGTTTTCCCGGTAATCCGTATTTGAT (site CCAGGTACTAT)	0.643
TGGCCGGCATGGACCGGTTTTCCCGGTAATCCGTATTTGGC (site TGGGCGGCTGC)	0
ACGCTATCATGGACCGGTTTTCCCGGTAATCCGTATTTGCA (site ACAGTATCTTG)	1.92
CTGCTGACATGGACCGGTTTTCCCGGTAATCCGTATTTGAC (site CTGCTGACTGT)	1.02
TACACCTCATGGACCGGTTTTCCCGGTAATCCGTATTTGCA (site TACACCTCTTG)	2.35
ATGTCGGCATGGACCGGTTTTCCCGGTAATCCGTATTTGGC (site ATGTCGGCTGC)	2.2
CTCTTGGCATGGACCGGTTTTCCCGGTAATCCGTATTTGGA (site CGCTTGGCTTC)	0.00297
AATGTCTCATGGACCGGTTTTCCCGGTAATCCGTATTTGAC (site AATGTATCTGT)	1.32
ATGTAGGCATGGACCGGTTTTCCCGGTAATCCGTATTTGGG (site ATGTAGGCTCC)	0.167
TAAAGACCATGGACCGGTTTTCCCGGTAATCCGTATTTGTA (site TAAAGCCCTTA)	0.624
CGCACATCATGGACCGGTTTTCCCGGTAATCCGTATTTGCT (site CGTACATCTAG)	0
GGAAATCCATGGACCGGTTTTCCCGGTAATCCGTATTTGAA (site GGCAATCCTTT)	0
AGTGTGTCATGGACCGGTTTTCCCGGTAATCCGTATTTGAC (site ACTGTGTCTGT)	0.812
TTAGCTGCATGGACCGGTTTTCCCGGTAATCCGTATTTGCG (site TTAGCTGCTCA)	0.00643
CGGACATCATGGACCGGTTTTCCCGGTAATCCGTATTTGGT (site CGGACATCTAA)	0.416
AGGAATACATGGACCGGTTTTCCCGGTAATCCGTATTTGCA (site AGGAAAACTTG)	0.656
CACTCCCCATGGACCGGTTTTCCCGGTAATCCGTATTTGCC (site CACTCCTCTGG)	1.43

Sequence	recombinant UMI read abundance (log10)
CGCTCATCATGGACCGGTTTTCCCGGTAATCCGTATTTGCT (site CGCTCATCTAG)	2.6
CTGCTACCATGGACCGGTTTTCCCGGTAATCCGTATTTGCT (site CTGCTACCTTG)	0
AAGTAGACATGGACCGGTTTTCCCGGTAATCCGTATTTGCA (site AAGTAGACTTG)	2.72
TCATACTCATGGACCGGTTTTCCCGGTAATCCGTATTTGCA (site CCATACTCTTG)	2.03
CGAAATCCATGGACCGGTTTTCCCGGTAATCCGTATTTGTT (site CGGAATCCTAA)	0
CTGCTACCATGGACCGGTTTTCCCGGTAATCCGTATTTGCT (site CTGCTGCCTAG)	0.038
GTATGCACATGGACCGGTTTTCCCGGTAATCCGTATTTGTA (site TTATGCACTTA)	0.185
ATGTAGGCATGGACCGGTTTTCCCGGTAATCCGTATTTGGC (site ATGTTGGCTGC)	0.568
CGCTCGACATGGACCGGTTTTCCCGGTAATCCGTATTTGTT (site CGGTCGACTAA)	0
GCTACTACATGGACCGGTTTTCCCGGTAATCCGTATTTGCC (site GCTACTCCTGG)	0
TGGTCCACATGGACCGGTTTTCCCGGTAATCCGTATTTGTC (site TGGTCCACTGA)	0.323
GCCCGCTCATGGACCGGTTTTCCCGGTAATCCGTATTTGCG (site GCCCGCTCTCG)	2.44
CCACACACATGGACCGGTTTTCCCGGTAATCCGTATTTGTA (site CCGCACACTTA)	0.0104
GCGAAAGCATGGACCGGTTTTCCCGGTAATCCGTATTTGCT (site GCGAAACCTAG)	0
TTGATTACATGGACCGGTTTTCCCGGTAATCCGTATTTGGC (site TTGATTACTGC)	0
CGGAGGCCATGGACCGGTTTTCCCGGTAATCCGTATTTGTT (site CGGAGGCCTAA)	0
GGGGCACCATGGACCGGTTTTCCCGGTAATCCGTATTTGCA (site GGCGCACCTTG)	0
AGTTCCACATGGACCGGTTTTCCCGGTAATCCGTATTTGGC (site AGTTCCACTGC)	1.42
AGGATGACATGGACCGGTTTTCCCGGTAATCCGTATTTGTA (site AGGATGACTTA)	2.6
